Target: hMRGX2 (CHO-K1 cells overexpressing MRGX2) (Homo sapiens (Human), UniProt Q96LB1)
Experiment: In vitro inhibition (EC50) of intracellular calcium flux, FLIPR Tetra, substance P stimulation
Type: cell-based
Details: stimulated with MRGX2 ligand substance P, FLIPR Calcium 5, read-out: hMRGX2 Cellular Potency (pEC50) (converted)
Protocol: In Vitro Inhibition (EC50) of Intracellular Calcium Flux
The release of intracellular calcium following stimulation of cells with substance P in the presence or absence of inhibitor compounds was measured using the FLIPR Tetra® system. CHO-K1 cells overexpressing MRGX2 were seeded into 384-well plates (Black clear bottom, TC-treated, Fisher #07-200-655) and incubated overnight to allow for cell attachment. Media was removed, and 1× loading buffer (FLIPR® Calcium 5 assay solution, Molecular Devices, per manufacturer specifications) was added. The plates were incubated at 37° C. for 30 minutes. Test compounds were added to cells (11-point dose response, 10 µM maximum concentration) and fluorescence measured (120 seconds, in real time) using the FLIPR Tetra® system. Immediately following, MRGX2 ligand substance P was added at a final concentration of 1 µM and fluorescence measured (120 seconds, in real time) using the FLIPR Tetra® system. The data for the examples are reported as pEC50.

hMRGX2 (CHO-K1 cells overexpressing MRGX2), sequence (Q96LB1 whole entry): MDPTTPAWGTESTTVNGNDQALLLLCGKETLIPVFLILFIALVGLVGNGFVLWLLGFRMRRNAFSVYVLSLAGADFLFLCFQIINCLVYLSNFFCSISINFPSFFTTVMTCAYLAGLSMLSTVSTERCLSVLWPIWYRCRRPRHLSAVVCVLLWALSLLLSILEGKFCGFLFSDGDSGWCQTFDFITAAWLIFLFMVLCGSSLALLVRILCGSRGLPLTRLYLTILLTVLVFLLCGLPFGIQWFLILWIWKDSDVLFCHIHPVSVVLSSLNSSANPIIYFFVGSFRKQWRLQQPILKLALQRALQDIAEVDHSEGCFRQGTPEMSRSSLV

Compound | EC50 [nM]
O=S1(=O)N=C(NCc2ccncc2)Nc2c(-c3cc(F)cc(F)c3)cccc21 [Example 82, 5-(3,5-difluorophenyl)-3-((pyridin-4-ylmethyl)amino)-4H-benzo[e][1,2,4]thiadiazine 1,1-dioxide] | 1010
COc1cccc(CNC2=NS(=O)(=O)c3cccc(-c4cccc(F)c4Cl)c3N2)n1 [Example 18, 5-(2-chloro-3-fluorophenyl)-3-(((6-methoxypyridin-2-yl)methyl)amino)-4H-benzo[e][1,2,4]thiadiazine 1,1-dioxide] | 21.3
O=S1(=O)N=C(NCCc2ccncc2)Nc2c(-c3cccc(F)c3Cl)cccc21 [Example 68, 5-(2-chloro-3-fluorophenyl)-3-((2-(pyridin-4-yl)ethyl)amino)-4H-benzo[e][1,2,4]thiadiazine 1,1-dioxide] | 305
O=S1(=O)N=C(NCCc2ccccn2)Nc2c(-c3cccc(F)c3Cl)cccc21 [Example 67, 5-(2-chloro-3-fluorophenyl)-3-((2-(pyridin-2-yl)ethyl)amino)-4H-benzo[e][1,2,4]thiadiazine 1,1-dioxide] | 36.6
CNC1=NS(=O)(=O)c2cccc(-c3cccc(F)c3C)c2N1 [Example 95, 5-(3-fluoro-2-methylphenyl)-3-(methylamino)-4H-benzo[e][1,2,4]thiadiazine 1,1-dioxide] | 350
O=S1(=O)N=C(NCC2CC2)Nc2c(-c3ccnc(F)c3Cl)cccc21 [Example 50, 5-(3-chloro-2-fluoropyridin-4-yl)-3-((cyclopropylmethyl)amino)-4H-benzo[e][1,2,4]thiadiazine 1,1-dioxide] | 70.8
COc1cccc(CNC2=NS(=O)(=O)c3cccc(C4CC4)c3N2)n1 [Example 120, 5-cyclopropyl-3-(((6-methoxypyridin-2-yl)methyl)amino)-4H-benzo[e][1,2,4]thiadiazine 1,1-dioxide] | 578
O=S1(=O)N=C(NCc2ncccc2F)Nc2c(C3CC3)cccc21 [Example 119, 5-cyclopropyl-3-(((3-fluoropyridin-2-yl)methyl)amino)-4H-benzo[e][1,2,4]thiadiazine 1,1-dioxide] | 484
CNC1=NS(=O)(=O)c2cccc(-c3cc(F)cc(F)c3F)c2N1 [Example 96, 3-(methylamino)-5-(2,3,5-trifluorophenyl)-4H-benzo[e][1,2,4]thiadiazine 1,1-dioxide] | 598
O=S1(=O)N=C(NCC2CCCO2)Nc2c(-c3cccc(F)c3Cl)cccc21 (stereo not drawn) [Example 123, 5-(2-chloro-3-fluorophenyl)-3-(((tetrahydrofuran-2-yl)methyl)amino)-4H-benzo[e][1,2,4]thiadiazine 1,1-dioxide] | 60.8
O=S1(=O)N=C(NCc2ccccc2F)Nc2c(-c3cc(F)cc(F)c3)cccc21 [Example 77, 5-(3,5-difluorophenyl)-3-((2-fluorobenzyl)amino)-4H-benzo[e][1,2,4]thiadiazine 1,1-dioxide] | 34.9
O=S1(=O)N=C(NCc2nccs2)Nc2c(-c3ccnc(F)c3Cl)cccc21 [Example 49, 5-(3-chloro-2-fluoropyridin-4-yl)-3-((thiazol-2-ylmethyl)amino)-4H-benzo[e][1,2,4]thiadiazine 1,1-dioxide] | 24.2
COc1cccc(CNC2=NS(=O)(=O)c3cccc(-c4cccc(F)c4F)c3N2)n1 [Example 19, 5-(2,3-difluorophenyl)-3-(((6-methoxypyridin-2-yl)methyl)amino)-4H-benzo[e][1,2,4]thiadiazine 1,1-dioxide] | 23.4
CC(C)c1ccc(NC2=NS(=O)(=O)c3cccc(-c4ccccc4Cl)c3N2)cc1 [Example 112, 5-(2-chlorophenyl)-3-((4-isopropylphenyl)amino)-4H-benzo[e][1,2,4]thiadiazine 1,1-dioxide] | 165
O=S1(=O)N=C(NCc2ccccn2)Nc2c(-c3ccccc3Cl)cccc21 [Example 41, 5-(2-chlorophenyl)-3-((pyridin-2-ylmethyl)amino)-4H-benzo[e][1,2,4]thiadiazine 1,1-dioxide] | 26.4
COCCNC1=NS(=O)(=O)c2cccc(-c3ccnc(F)c3Cl)c2N1 [Example 36, 5-(3-chloro-2-fluoropyridin-4-yl)-3-((2-methoxyethyl)amino)-4H-benzo[e][1,2,4]thiadiazine 1,1-dioxide] | 50.4
CC(C)c1ccc(NC2=NS(=O)(=O)c3cccc(-c4cnn(C(F)F)c4)c3N2)cc1 [Example 99, 5-(1-(difluoromethyl)-1H-pyrazol-4-yl)-3-((4-isopropylphenyl)amino)-4H-benzo[e][1,2,4]thiadiazine 1,1-dioxide] | 760
CNC1=NS(=O)(=O)c2cccc(-c3ccc(C)cc3Cl)c2N1 [Example 92, 5-(2-chloro-4-methylphenyl)-3-(methylamino)-4H-benzo[e][1,2,4]thiadiazine 1,1-dioxide] | 92.7
CNC1=NS(=O)(=O)c2cccc(-c3cc(F)ccc3Cl)c2N1 [Example 93, 5-(2-chloro-5-fluorophenyl)-3-(methylamino)-4H-benzo[e][1,2,4]thiadiazine 1,1-dioxide] | 181
COCCNC1=NS(=O)(=O)c2cccc(-c3cccc(F)c3F)c2N1 [Example 37, 5-(2,3-difluorophenyl)-3-((2-methoxyethyl)amino)-4H-benzo[e][1,2,4]thiadiazine 1,1-dioxide] | 394
Cn1cccc(CNC2=NS(=O)(=O)c3cccc(-c4cccc(F)c4F)c3N2)c1=O [Example 20, 3-(((5-(2,3-difluorophenyl)-1,1-dioxido-4H-benzo[e][1,2,4]thiadiazin-3-yl)amino)methyl)-1-methylpyridin-2(1H)-one] | 857
CN(C)C(=O)CNC1=NS(=O)(=O)c2cccc(-c3cccc(F)c3Cl)c2N1 [Example 62, 2-((5-(2-chloro-3-fluorophenyl)-1,1-dioxido-4H-benzol[e][1,2,4]thiadiazin-3-yl)amino)-N,N-dimethylacetamide] | 279
CC(C)c1ccc(NC2=NS(=O)(=O)c3cccc(-c4cnn(C5CC(F)(F)C5)c4)c3N2)cc1 [Example 104, 5-(1-(3,3-difluorocyclobutyl)-1H-pyrazol-4-yl)-3-((4-isopropylphenyl)amino)-4H-benzo[e][1,2,4]thiadiazine 1,1-dioxide] | 89.1
O=S1(=O)N=C(NCc2c(F)cccc2F)Nc2c(-c3cc(F)cc(F)c3)cccc21 [Example 78, 3-((2,6-difluorobenzyl)amino)-5-(3,5-difluorophenyl)-4H-benzo[e][1,2,4]thiadiazine 1,1-dioxide] | 224
CC(NC1=NS(=O)(=O)c2cc(F)cc(-c3cccc(F)c3Cl)c2N1)c1cscn1 (stereo not drawn) [Example 9, 5-(2-chloro-3-fluorophenyl)-7-fluoro-3-((1-(thiazol-4-yl)ethyl)amino)-4H-benzo[e][1,2,4]thiadiazine 1,1-dioxide] | 146

More lines, now with the values ahead:

EC50 [nM] | Compound
229 | CC(C)NC1=NS(=O)(=O)c2cccc(-c3cccc(F)c3Cl)c2N1 [Example 158, 5-(2-chloro-3-fluorophenyl)-3-(isopropylamino)-4H-benzo[e][1,2,4]thiadiazine 1,1-dioxide]
180 | CCc1ccccc1-c1cccc2c1NC(NCCOC)=NS2(=O)=O [Example 163, 5-(2-ethylphenyl)-3-((2-methoxyethyl)amino)-4H-benzo[e][1,2,4]thiadiazine 1,1-dioxide]
61.5 | N#Cc1c(F)cccc1-c1cccc2c1NC(NCc1ncco1)=NS2(=O)=O [Example 161, 2-fluoro-6-(3-((oxazol-2-ylmethyl)amino)-1,1-dioxido-4H-benzo[e][1,2,4]thiadiazin-5-yl)benzonitrile]
162 | N#Cc1ccccc1-c1cccc2c1NC(NCC1CCC1)=NS2(=O)=O [Example 146, 2-(3-((cyclobutylmethyl)amino)-1,1-dioxido-4H-benzo[e][1,2,4]thiadiazin-5-yl)benzonitrile]
87.9 | O=S1(=O)N=C(NCC2CCC2)Nc2c(-c3cc(F)cc(F)c3F)cccc21 [Example 130, 3-((cyclobutylmethyl)amino)-5-(2,3,5-trifluorophenyl)-4H-benzo[e][1,2,4]thiadiazine 1,1-dioxide]
2690 | CO[C@H](C)CNC1=NS(=O)(=O)c2cccc(-c3cc(F)cc(F)c3F)c2N1 (single isomer, unassigned) [Example 129]
288 | CCNC1=NS(=O)(=O)c2cccc(-c3cccc(F)c3F)c2N1 [Example 165, 5-(2,3-difluorophenyl)-3-(ethylamino)-4H-benzo[e][1,2,4]thiadiazine 1,1-dioxide]
281 | COCCNC1=NS(=O)(=O)c2cccc(-c3cccc(C(F)(F)F)c3Cl)c2N1 [Example 132, 5-(2-chloro-3-(trifluoromethyl)phenyl)-3-((2-methoxyethyl)amino)-4H-benzo[e][1,2,4]thiadiazine 1,1-dioxide]
638 | COCCNC1=NS(=O)(=O)c2cccc(-c3ccc(F)c(F)c3C)c2N1 [Example 170, 5-(3,4-difluoro-2-methylphenyl)-3-((2-methoxyethyl)amino)-4H-benzo[e][1,2,4]thiadiazine, 1,1-dioxide]
296 | COCCNC1=NS(=O)(=O)c2cccc(-c3ccc(F)cc3Cl)c2N1 [Example 133, 5-(2-chloro-4-fluorophenyl)-3-((2-methoxyethyl)amino)-4H-benzo[e][1,2,4]thiadiazine 1,1-dioxide]
64.4 | COCCNC1=NS(=O)(=O)c2cccc(-c3ccccc3C(F)(F)F)c2N1 [Example 124, 3-((2-methoxyethyl)amino)-5-(2-(trifluoromethyl)phenyl)-4H-benzo[e][1,2,4]thiadiazine 1,1-dioxide]

— US12247015B2, “3-amino-4H-benzo[e][1,2,4]thiadiazine 1,1-dioxide derivatives as inhibitors of MRGX2” (Solent Therapeutics, LLC, priority 2019, dated 2025)
